The text below walks through data of article PMC6374029 (Antiviral Research, 2018).

A word on the half-life: it is how long it takes for the measured level to halve.

Structures are written as SMILES.

For data set [1] the following is noted: human, in vivo; cited from earlier work.
The test system of data set [2] is EBOV minigenome. It is filed as cell-based, Ebola virus.
For data set [3], the system named is Ebola virus. The conditions noted are these: in vivo; cited from earlier work.
Data set [4] concerns Huh7 cells.
Data set [5] can be described thus: in vitro. The conditions noted are these: human.

Take `CCNCc1cc(Nc2ccnc3cc(Cl)ccc23)ccc1O` [desethyl-amodiaquine]: the half-life in data set [1] was 220 to 432 h. For the molecule `COc1c(C)c2c(c(O)c1C/C=C(\C)CCC(=O)O)C(=O)OC2` [mycophenolic acid], in data set [2], the “activity of EBOV minigenome (firefly luciferase normalized to renilla)” value is listed as “effectively blocked the signal from the minigenome”.

With `CCN(CC)Cc1cc(Nc2ccnc3cc(Cl)ccc23)ccc1O` [Amodiaquine, amodiaquine], the case mortality in data set [3] was 50%. For the same molecule, the Selectivity index in data set [4] is 37. The molecule also gave a CC50 in data set [5] of 79 µM.
